The target in this experiment is T1, LH2 (light-harvesting 2 complex), B800 site; B850 LH2 when B800-depleted (Cereibacter sphaeroides, UniProt Q3J144+Q3J145).
T1 construct: gene pucA; native complex purified from Rba. sphaeroides membranes (LDAO, then beta-DDM); B800 BChl a removed with LDS for reconstitution; B850 BChl a and carotenoid retained; ring of nine alpha-beta pairs; R30L/R30F genomic at the puc1BA locus, R30E/R30M from pRK415 vectors, in delta-puc1BA delta-puc2BA delta-pufBALMX
The experiment is described as follows: reconstitution of B800-depleted LH2, absorption spectra. It is filed as binding. The note with it: 20 mM Tris pH 8, 0.5% beta-DDM, 12 uM pigment, room temperature.

T1 sequence (Q3J144 whole entry): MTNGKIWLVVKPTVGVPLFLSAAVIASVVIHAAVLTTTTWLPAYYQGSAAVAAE
T1 sequence (Q3J145 2-51): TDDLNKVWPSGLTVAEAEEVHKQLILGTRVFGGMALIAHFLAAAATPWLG

In the case of `C=Cc1c(C=O)c2[n]3c1C=C1N=C(C=c4c(C)c5c([n]4[Mg]3)=C(C3=NC(=C2)[C@@H](C)[C@@H]3CCC(=O)OC/C=C(\C)CCC[C@H](C)CCC[C@H](C)CCCC(C)C)[C@@H](C(=O)OC)C5=O)C(CC)=C1C` [Chl f], the “reconstitution of B800-depleted LH2, absorption spectra” value was “we generated additional novel reconstitutions using Chl f”.

Values taken from paper PMC6358721, “Engineering of B800 bacteriochlorophyll binding site specificity in the Rhodobacter sphaeroides LH2 antenna” (Biochimica et Biophysica Acta. Bioenergetics, 2019).
